Test results: ChEMBL document CHEMBL1155917, “Use of the nitrile oxide cycloaddition (NOC) reaction for molecular probe generation: a new class of enzyme selective histone deacetylase inhibitors (HDACIs) showing picomolar activity at HDAC6” (J Med Chem, 2008)

Tests used:
Histone deacetylase 1 = Histone deacetylase 1 (Homo sapiens, UniProt Q13547)
Description: Inhibition of HDAC1 after 17 hrs

[1] = target: T1, Protein deacetylase HDAC6 (Homo sapiens, UniProt Q9UBN7); test: Inhibition of HDAC6 after 17 hrs
T1 sequence (Q9UBN7 whole entry): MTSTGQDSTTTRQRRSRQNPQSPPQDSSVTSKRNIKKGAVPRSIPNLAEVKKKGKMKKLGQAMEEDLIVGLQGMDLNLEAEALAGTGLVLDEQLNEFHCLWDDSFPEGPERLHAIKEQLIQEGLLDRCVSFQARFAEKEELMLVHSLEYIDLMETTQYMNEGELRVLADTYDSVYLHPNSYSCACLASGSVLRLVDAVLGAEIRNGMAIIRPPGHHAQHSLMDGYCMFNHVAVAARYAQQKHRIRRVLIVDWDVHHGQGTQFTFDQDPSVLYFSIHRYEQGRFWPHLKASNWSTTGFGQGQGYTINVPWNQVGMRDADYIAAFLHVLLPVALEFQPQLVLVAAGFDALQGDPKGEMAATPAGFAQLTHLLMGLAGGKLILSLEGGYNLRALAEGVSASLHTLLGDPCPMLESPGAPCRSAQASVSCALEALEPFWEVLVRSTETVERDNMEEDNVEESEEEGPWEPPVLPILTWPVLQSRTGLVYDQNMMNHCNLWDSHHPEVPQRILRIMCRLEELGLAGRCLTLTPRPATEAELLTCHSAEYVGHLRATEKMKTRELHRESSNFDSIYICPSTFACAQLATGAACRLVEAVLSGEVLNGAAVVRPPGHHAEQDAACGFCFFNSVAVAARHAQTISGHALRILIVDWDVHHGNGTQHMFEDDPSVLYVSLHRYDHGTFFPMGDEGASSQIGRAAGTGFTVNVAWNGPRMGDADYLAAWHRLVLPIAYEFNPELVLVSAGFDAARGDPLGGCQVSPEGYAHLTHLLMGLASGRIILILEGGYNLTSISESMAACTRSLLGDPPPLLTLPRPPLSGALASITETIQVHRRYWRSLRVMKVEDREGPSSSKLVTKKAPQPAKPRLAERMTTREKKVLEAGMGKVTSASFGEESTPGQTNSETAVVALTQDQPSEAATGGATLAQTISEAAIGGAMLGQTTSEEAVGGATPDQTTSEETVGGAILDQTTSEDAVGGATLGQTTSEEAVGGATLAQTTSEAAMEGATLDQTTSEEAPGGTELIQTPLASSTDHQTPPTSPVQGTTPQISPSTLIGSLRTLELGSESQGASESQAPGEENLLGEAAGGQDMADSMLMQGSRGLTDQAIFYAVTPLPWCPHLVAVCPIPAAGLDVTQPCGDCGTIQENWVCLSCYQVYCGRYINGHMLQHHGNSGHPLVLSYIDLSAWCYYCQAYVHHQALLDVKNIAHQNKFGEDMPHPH

MIA PaCa-2 = test: Antiproliferative activity against human MiaPaca2 cells after 72 hrs by MTT assay; assay type: functional, cell-based; conditions: MIA PaCa-2, 72 h
[2] = Antiproliferative activity against human SU.86.86 cells after 72 hrs by MTT assay; assay type: functional, cell-based; conditions: SU.86.86, 72 h
[3] = Antiproliferative activity against human Panc04.03 cells after 72 hrs by MTT assay; assay type: functional, cell-based; conditions: Panc 04.03, 72 h
Histone deacetylase 3 = Histone deacetylase 3 (Homo sapiens, UniProt O15379); test: Inhibition of HDAC3 after 17 hrs
Histone deacetylase 2 = Histone deacetylase 2 (Homo sapiens, UniProt Q92769); test: Inhibition of HDAC2 after 17 hrs
[4] = target: T2, Polyamine deacetylase HDAC10 (Homo sapiens, UniProt Q969S8)
T2 sequence (Q969S8 whole entry): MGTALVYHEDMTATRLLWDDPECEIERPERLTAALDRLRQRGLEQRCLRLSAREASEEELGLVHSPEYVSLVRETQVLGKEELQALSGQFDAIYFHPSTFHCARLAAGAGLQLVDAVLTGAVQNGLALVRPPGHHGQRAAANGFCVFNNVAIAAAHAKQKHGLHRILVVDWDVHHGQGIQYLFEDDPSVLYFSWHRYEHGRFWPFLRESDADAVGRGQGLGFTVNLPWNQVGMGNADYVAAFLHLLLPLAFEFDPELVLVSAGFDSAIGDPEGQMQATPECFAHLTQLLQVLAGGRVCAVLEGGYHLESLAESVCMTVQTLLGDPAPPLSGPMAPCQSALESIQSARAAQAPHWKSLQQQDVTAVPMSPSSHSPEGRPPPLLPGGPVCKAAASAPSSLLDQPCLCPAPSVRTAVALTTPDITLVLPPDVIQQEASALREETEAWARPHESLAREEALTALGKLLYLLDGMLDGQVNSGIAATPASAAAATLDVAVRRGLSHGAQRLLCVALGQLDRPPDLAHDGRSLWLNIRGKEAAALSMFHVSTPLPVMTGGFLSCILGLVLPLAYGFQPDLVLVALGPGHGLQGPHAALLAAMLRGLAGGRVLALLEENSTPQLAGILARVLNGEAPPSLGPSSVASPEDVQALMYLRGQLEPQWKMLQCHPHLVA
Description: Inhibition of HDAC10 after 17 hrs

HuP-T3 = test: Antiproliferative activity against human HupT3 cells after 72 hrs by MTT assay; assay type: functional, cell-based; conditions: HuP-T3, 72 h
Histone deacetylase 8 = target: T3, Histone deacetylase 8 (Homo sapiens, UniProt Q9BY41)
T3 sequence (Q9BY41 whole entry): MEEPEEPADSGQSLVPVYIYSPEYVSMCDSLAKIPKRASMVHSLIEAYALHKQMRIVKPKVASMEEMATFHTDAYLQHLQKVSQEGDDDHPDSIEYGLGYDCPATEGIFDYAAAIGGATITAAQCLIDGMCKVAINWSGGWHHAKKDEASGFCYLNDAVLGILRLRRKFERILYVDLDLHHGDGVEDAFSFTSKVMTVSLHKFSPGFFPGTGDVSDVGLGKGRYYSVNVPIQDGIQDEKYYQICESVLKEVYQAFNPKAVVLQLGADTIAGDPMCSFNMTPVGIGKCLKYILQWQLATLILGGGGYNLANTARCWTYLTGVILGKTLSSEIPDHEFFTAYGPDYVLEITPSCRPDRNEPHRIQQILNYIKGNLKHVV
Description: Inhibition of HDAC8 after 17 hrs

BXPC-3 = test: Antiproliferative activity against human BxPC3 cells after 72 hrs by MTT assay; assay type: functional, cell-based; conditions: BXPC-3, 72 h
HMEC = test: Cytotoxicity against HMEC after 72 hrs by MTT assay; assay type: ADME, cell-based; conditions: Homo sapiens
[5] = Cytotoxicity against HPDE 6c7 cells after 72 hrs by MTT assay; assay type: ADME, cell-based; conditions: Homo sapiens, HPDE6c7, 72 h

Sequence of Histone deacetylase 1 (Q13547 whole entry): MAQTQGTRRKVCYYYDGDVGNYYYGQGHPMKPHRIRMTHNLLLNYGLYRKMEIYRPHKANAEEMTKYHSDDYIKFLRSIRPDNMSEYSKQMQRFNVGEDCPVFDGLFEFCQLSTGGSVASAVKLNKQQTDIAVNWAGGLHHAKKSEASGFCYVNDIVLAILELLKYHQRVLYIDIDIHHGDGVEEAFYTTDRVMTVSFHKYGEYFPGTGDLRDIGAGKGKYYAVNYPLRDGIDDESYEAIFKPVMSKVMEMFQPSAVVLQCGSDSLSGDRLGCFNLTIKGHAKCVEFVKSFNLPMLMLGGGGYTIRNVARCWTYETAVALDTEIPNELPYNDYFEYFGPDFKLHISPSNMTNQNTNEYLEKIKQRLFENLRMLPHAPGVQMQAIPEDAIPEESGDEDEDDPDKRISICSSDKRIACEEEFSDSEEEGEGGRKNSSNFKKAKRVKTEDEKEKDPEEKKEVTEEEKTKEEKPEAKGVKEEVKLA
Sequence of Histone deacetylase 3 (O15379 whole entry): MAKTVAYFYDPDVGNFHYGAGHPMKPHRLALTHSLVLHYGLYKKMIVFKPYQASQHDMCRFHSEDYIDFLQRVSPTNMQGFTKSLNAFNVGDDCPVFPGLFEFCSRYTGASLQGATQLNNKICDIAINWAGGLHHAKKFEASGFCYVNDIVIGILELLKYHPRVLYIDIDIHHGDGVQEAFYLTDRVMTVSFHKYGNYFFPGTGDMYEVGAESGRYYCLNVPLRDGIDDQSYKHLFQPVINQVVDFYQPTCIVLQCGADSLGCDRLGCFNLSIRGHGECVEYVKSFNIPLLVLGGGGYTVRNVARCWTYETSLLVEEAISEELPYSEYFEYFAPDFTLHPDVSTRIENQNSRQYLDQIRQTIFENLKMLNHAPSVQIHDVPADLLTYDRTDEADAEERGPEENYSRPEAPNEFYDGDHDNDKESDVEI
Sequence of Histone deacetylase 2 (Q92769 whole entry): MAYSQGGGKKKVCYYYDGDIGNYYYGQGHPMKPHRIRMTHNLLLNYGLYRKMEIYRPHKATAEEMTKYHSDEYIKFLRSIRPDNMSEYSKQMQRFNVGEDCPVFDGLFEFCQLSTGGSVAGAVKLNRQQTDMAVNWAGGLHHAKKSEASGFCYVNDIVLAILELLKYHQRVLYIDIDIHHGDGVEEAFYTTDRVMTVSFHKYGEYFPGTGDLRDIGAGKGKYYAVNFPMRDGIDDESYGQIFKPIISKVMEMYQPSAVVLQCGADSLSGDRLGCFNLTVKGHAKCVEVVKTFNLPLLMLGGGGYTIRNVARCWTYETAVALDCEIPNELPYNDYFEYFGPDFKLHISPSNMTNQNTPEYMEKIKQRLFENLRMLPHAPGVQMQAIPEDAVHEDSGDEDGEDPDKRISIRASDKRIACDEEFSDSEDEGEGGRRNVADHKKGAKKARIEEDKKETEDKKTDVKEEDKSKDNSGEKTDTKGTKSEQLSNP

Compound | IC50 (Histone deacetylase 1) [nM] | IC50 [1] [nM] | IC50 (MIA PaCa-2) [nM] | IC50 (Histone deacetylase 3) [nM] | IC50 (Histone deacetylase 2) [nM] | IC50 [4] [nM] | IC50 (Histone deacetylase 8) [nM] | IC50 (BXPC-3) [nM] | IC50 [2] [nM] | IC50 [3] [nM] | IC50 (HuP-T3) [nM] | IC50 (HMEC) [nM] | IC50 [5] [nM]
Nc1cccc(-c2cc(C(=O)NCCCCC(=O)NO)no2)c1 | 716 | 72.2 | 25000 | 144 | 1940 | 840 | 3430 | 38000 | 25000 | > 50000 | 37000 |  | 
CC(C)(C)OC(=O)Nc1ccc(-c2cc(C(=O)NCCCCC(=O)NO)no2)cc1 | 628 | 31.6 | 12000 | 115 | 1740 | 690 | 3650 | 25000 | 24000 | 16000 | 10000 |  | 
O=C(CCCCNC(=O)c1cc(-c2ccccc2)on1)NO | 644 | 61.9 | 4000 | 158 | 1690 | 852 | 3580 | 28000 | 5000 | 5000 | 5000 |  | 
Nc1cccc(-c2cc(C(=O)NCCCCCCC(=O)NO)no2)c1 | 20.7 | 2.54 | 100 | 4.04 | 56.7 | 17.5 | 938 | 700 | 200 | 900 | 100 | < 1000 | 200
Nc1ccc(-c2cc(C(=O)NCCCCC(=O)NO)no2)cc1 | 360 | 35.1 | 10000 | 65.8 | 1050 | 401 | 2830 | 33000 | 11000 | 17000 | 7000 |  | 
CC(C)(C)OC(=O)Nc1cccc(-c2cc(C(=O)NCCCCC(=O)NO)no2)c1 | 826 | 3.98 | 8000 | 83.6 | 2980 | 891 | 5810 | 36000 | 22000 | 14000 | 14000 |  | 
CC(C)(C)OC(=O)Nc1ccc(-c2cc(C(=O)NCCCCCCC(=O)NO)no2)cc1 | 271 |  | 100 | 0.42 | 252 | 90.7 | 6850 | 1000 | 600 | 100 | 300 | < 1000 | 500

More lines, in order of falling IC50 (Histone deacetylase 1), values ahead:

IC50 (Histone deacetylase 1) [nM] | IC50 [1] [nM] | IC50 (MIA PaCa-2) [nM] | IC50 (Histone deacetylase 3) [nM] | IC50 (Histone deacetylase 2) [nM] | IC50 [4] [nM] | IC50 (Histone deacetylase 8) [nM] | IC50 (BXPC-3) [nM] | Compound | IC50 [2] [nM] | IC50 [3] [nM] | IC50 (HuP-T3) [nM] | IC50 (HMEC) [nM] | IC50 [5] [nM]
124 | 49.5 | 1000 | 12.9 | 133 | 155 | 3320 | 7000 | O=C(CCCCOCc1cc(-c2ccccc2)on1)NO | 1000 | 1500 | 400 |  | 
100 | < 0.002 | 700 | < 0.002 | 238 | 28.2 | 8100 | 1000 | CC(C)(C)OC(=O)Nc1cccc(-c2cc(C(=O)NCCCCCCC(=O)NO)no2)c1 | 1000 | 1000 | 800 | 7000 | 1500
64.5 | 6.81 | 900 | 18 | 131 | 73 | 4900 | 6000 | CC(=O)Nc1ccc(-c2cc(C(=O)NCCCCCCC(=O)NO)no2)cc1 | 1000 | 4000 | 1000 |  | 
56.3 | 5.86 | 100 | 10.2 | 147 | 44.9 | 3460 | 800 | Nc1ccc(-c2cc(C(=O)NCCCCCCC(=O)NO)no2)cc1 | 800 | 100 | 200 | < 1000 | 400
